As usually defined, the pIC50 is the negative decadic logarithm of the IC50, by convention in mol/L.

pIC50: −log10 of the molar value.

One test concerns the target T1, ER-α (Homo sapiens, UniProt P03372).
T1 sequence (P03372 1-595): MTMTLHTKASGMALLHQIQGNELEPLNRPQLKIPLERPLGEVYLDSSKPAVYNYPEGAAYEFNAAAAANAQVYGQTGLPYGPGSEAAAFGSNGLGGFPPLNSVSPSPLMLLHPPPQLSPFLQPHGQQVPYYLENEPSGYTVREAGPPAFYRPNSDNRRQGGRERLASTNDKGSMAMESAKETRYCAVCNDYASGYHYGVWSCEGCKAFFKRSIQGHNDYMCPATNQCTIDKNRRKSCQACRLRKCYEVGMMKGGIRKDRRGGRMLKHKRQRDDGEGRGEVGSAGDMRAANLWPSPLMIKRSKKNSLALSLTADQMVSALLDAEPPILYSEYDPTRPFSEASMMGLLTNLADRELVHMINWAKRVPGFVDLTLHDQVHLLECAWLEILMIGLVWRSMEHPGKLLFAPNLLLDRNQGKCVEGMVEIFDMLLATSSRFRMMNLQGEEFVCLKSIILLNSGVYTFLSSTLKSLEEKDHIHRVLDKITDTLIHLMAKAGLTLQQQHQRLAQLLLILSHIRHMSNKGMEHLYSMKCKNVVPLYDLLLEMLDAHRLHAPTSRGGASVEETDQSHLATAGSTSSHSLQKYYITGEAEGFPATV
The test can be described thus: Breast Cancer Cell ER-α In Cell Western Assay (SP1). Format: cell-based. Conditions: MCF-7 cells, SP1 antibody, 4 or 24 hr post compound addition; for Emax: MCF7, read-out: ER-α In Cell Western Assay (SP1) Max Response; for DC50: read-out: ER-α In Cell Western Assay (SP1) IC50. The method, boiled down:
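ER-α protein levels measured by in-cell western with SP1 antibody, ratioed to DRAQ5 DNA signal and given as percent of untreated controls. Compounds added at 0.3–0.000003 μM final (eleven semilog points) to adherent MCF-7 cells in stripped serum; exposure 4 or 24 h before fixation.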

The next test has as its system MCF-7 cells. The test can be described thus: Breast Cancer Cell Viability Assay (MCF-7, CellTiter-Glo). Format: cell-based. The following applies: 5 days' compound exposure; for pIC50: Homo sapiens, MCF7, 120 h. Summed up: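 Eleven-point semilog compound series, final 0.3-0.000003 μM, added to overnight-adhered MCF-7 cells (320/well; RPMI, 10% FBS, 20 mM HEPES) for 5 days. Viability read by CellTiter-Glo luminescence, background from medium without cells subtracted, expressed relative to untreated cells.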

As to `CC/C(=C(/c1ccc(/C=C/C(=O)O)cc1)c1ccc2[nH]ncc2c1)c1ccccc1C#N` [Compound 21, (E)-3-(4-((E)-2-(2-Cyanophenyl)-1-(1H-indazol-5-yl)but-1-en-1-yl)phenyl)acrylic acid], the Emax on ER-α is ≥ 40%. Besides, in the test with MCF-7 cells, the “MCF7 Viability Assay Max Response” value is given as “++ (++ = a single % value ≧ 40%)” and the pIC50 was ≥ 7.00.
For the compound `CC/C(=C(/c1ccc(/C=C/C(=O)O)cc1)c1ccc2[nH]ncc2c1)c1ccccc1O` [Compound 94, (E)-3-(4-((E)-2-(2-Hydroxyphenyl)-1-(1H-indazol-5-yl)but-1-en-1-yl)phenyl)acrylic acid], at ER-α, the Emax was ≥ 40% and the DC50 was ≤ 100 nM. For the same compound, in the test on MCF-7 cells, the “MCF7 Viability Assay Max Response” value was “++ (++ = a single % value ≧ 40%)” and the negative-log IC50 (pIC50) was < 7.00.
On the same counts, the results for `CC/C(=C(/c1ccc(/C=C/C(=O)O)cc1)c1ccc2[nH]ncc2c1)c1cccc(F)c1Cl` [Compound 23, (E)-3-(4-((E)-2-(2-Chloro-3-fluorophenyl)-1-(1H-indazol-5-yl)but-1-en-1-yl)phenyl)acrylic acid] are ≥ 40%, ≤ 100 nM, “++ (++ = a single % value ≧ 40%)” and ≥ 7.00.
On the same counts, the results for `CC/C(=C(/c1ccc(/C=C/C(=O)O)cc1)c1ccc2[nH]ncc2c1)c1cccc(C#N)c1C` [Compound 141, (E)-3-(4-((E)-2-(3-Cyano-2-methylphenyl)-1-(1H-indazol-5-yl)but-1-en-1-yl)phenyl)acrylic acid] are ≥ 40%, ≤ 100 nM, “++ (++ = a single % value ≧ 40%)” and < 7.00.
On the same counts, the results for `CCCCOc1cccc(/C(CC)=C(\c2ccc(/C=C/C(=O)O)cc2)c2ccc3[nH]ncc3c2)c1` [Compound 96, (E)-3-(4-((E)-2-(3-Butoxyphenyl)-1-(1H-indazol-5-yl)but-1-en-1-yl)phenyl)acrylic acid] are ≥ 40%, ≤ 100 nM, “++ (++ = a single % value ≧ 40%)” and ≥ 7.00.
For `CCC/C(=C(/c1ccc(/C=C/C(=O)O)cc1)c1ccc2[nH]ncc2c1)c1ccccc1` [Compound 43, (E)-3-(4-((E)-1-(1H-Indazol-5-yl)-2-phenylpent-1-en-1-yl)phenyl)acrylic acid], at ER-α, the Emax is ≥ 40% and the DC50 was ≤ 100 nM. Further, in the test on MCF-7 cells, the “MCF7 Viability Assay Max Response” value is on record as “++ (++ = a single % value ≧ 40%)” and the pIC50 is ≥ 7.00.
On the same counts, the results for `CC/C(=C(/c1ccc(/C=C/C(=O)O)cc1)c1ccc2[nH]nc(F)c2c1)c1ccc(F)cc1Cl` [Compound 88, (E)-3-(4-((E)-2-(2-Chloro-4-fluorophenyl)-1-(3-fluoro-1H-indazol-5-yl)but-1-en-1-yl)phenyl)acrylic acid] are ≥ 40%, ≤ 100 nM, “++ (++ = a single % value ≧ 40%)” and ≥ 7.00.
On the same counts, the results for `CC/C(=C(/c1ccc(/C=C(\C)C(=O)O)cc1)c1ccc2[nH]ncc2c1)c1ccccc1` [Compound 99, (E)-3-(4-((E)-1-(1H-Indazol-5-yl)-2-phenylbut-1-en-1-yl)phenyl)-2-methylacrylic acid] are ≥ 40%, ≤ 100 nM, “++ (++ = a single % value ≧ 40%)” and ≥ 7.00.
Consider `O=C(O)/C=C/c1ccc(/C(=C(/CCCl)c2ccccc2)c2ccc3[nH]ncc3c2F)cc1` [Compound 76, (E)-3-(4-((E)-4-Chloro-1-(4-fluoro-1H-indazol-5-yl)-2-phenylbut-1-en-1-yl)phenyl)acrylic acid], for which, on ER-α, the Emax was ≥ 40% and the DC50 was ≤ 100 nM. For the same compound, in the test with MCF-7 cells, the “MCF7 Viability Assay Max Response” value is on record as “++ (++ = a single % value ≧ 40%)” and the pIC50 is ≥ 7.00.
On the same counts, the results for `CC/C(=C(/c1ccc(/C=C/C(=O)O)cc1)c1ccc2[nH]ncc2c1)c1cc(F)ccc1Cl` [Compound 33, (E)-3-(4-((E)-2-(2-Chloro-5-fluorophenyl)-1-(1H-indazol-5-yl)but-1-en-1-yl)phenyl)acrylic acid] are ≥ 40%, ≤ 100 nM, “++ (++ = a single % value ≧ 40%)” and ≥ 7.00.
As for `CC/C(=C(/c1ccc(/C=C/C(=O)O)cc1)c1ccc2[nH]ncc2c1)c1c(Cl)cccc1Cl` [Compound 27, (E)-3-(4-((E)-2-(2,6-Dichlorophenyl)-1-(1H-indazol-5-yl)but-1-en-1-yl)phenyl)acrylic acid], on ER-α, the Emax was ≥ 40% and the DC50 is ≤ 100 nM. Besides, in the test with MCF-7 cells, the “MCF7 Viability Assay Max Response” value is listed as “++ (++ = a single % value ≧ 40%)” and the pIC50 was ≥ 7.00.
On the same counts, the results for `CC/C(=C(/c1ccc(/C=C/C(=O)O)cc1)c1ccc2[nH]ncc2c1)c1cccc(O)c1` [Compound 93, (E)-3-(4-((E)-2-(3-Hydroxyphenyl)-1-(1H-indazol-5-yl)but-1-en-1-yl)phenyl)acrylic acid] are ≥ 40%, ≤ 100 nM, “++ (++ = a single % value ≧ 40%)” and ≥ 7.00.
On the same counts, the results for `O=C(O)/C=C/c1ccc(/C(=C(/CCF)c2ccc(Cl)cc2Cl)c2ccc3[nH]ncc3c2F)cc1` [Compound 122, (E)-3-(4-((E)-2-(2,4-Dichlorophenyl)-4-fluoro-1-(4-fluoro-1H-indazol-5-yl)but-1-en-1-yl)phenyl)acrylic acid] are ≥ 40%, ≤ 100 nM, “++ (++ = a single % value ≧ 40%)” and ≥ 7.00.
On the same counts, the results for `CC/C(=C(/c1ccc(/C=C/C(=O)O)cc1)c1ccc2[nH]ncc2c1)c1cccc(OC(F)(F)F)c1` [Compound 83, (E)-3-(4-((E)-1-(1H-Indazol-5-yl)-2-(3-(trifluoromethoxy)phenyl)but-1-en-1-yl)phenyl)acrylic acid] are ≥ 40%, ≤ 100 nM, “++ (++ = a single % value ≧ 40%)” and ≥ 7.00.
Take `CC/C(=C(/c1ccc(/C=C/C(=O)O)cc1)c1ccc2[nH]ncc2c1)c1ccccc1` [Compound 2, (E)-3-(4-((E)-1-(1H-Indazol-5-yl)-2-phenylbut-1-en-1-yl)phenyl)acrylic acid]: the Emax at ER-α was ≥ 40%. In the test with MCF-7 cells, the “MCF7 Viability Assay Max Response” value is “++ (++ = a single % value ≧ 40%)” and the pIC50 is ≥ 7.00.
In the case of `CC/C(=C(/c1ccc(/C=C/C(=O)O)cc1)c1ccc2[nH]nc(Cl)c2c1)c1ccccc1` [Compound 40, (E)-3-(4-((E)-1-(3-Chloro-1H-indazol-5-yl)-2-phenylbut-1-en-1-yl)phenyl)acrylic acid], on ER-α, the Emax was ≥ 40% and the DC50 is > 100 nM. Also, in the test with MCF-7 cells, the “MCF7 Viability Assay Max Response” value is “++ (++ = a single % value ≧ 40%)” and the pIC50 was < 7.00.
On the same counts, the results for `COCC/C(=C(/c1ccc(/C=C/C(=O)O)cc1)c1ccc2[nH]ncc2c1)c1ccccc1` [Compound 47, (E)-3-(4-((E)-1-(1H-Indazol-5-yl)-4-methoxy-2-phenylbut-1-en-1-yl)phenyl)acrylic acid] are ≥ 40%, ≤ 100 nM, “++ (++ = a single % value ≧ 40%)” and ≥ 7.00.
On to `CC/C(=C(\c1ccc2[nH]ncc2c1)c1ccc(/C=C/C(=O)O)cc1C)c1ccccc1` [Compound 100, (E)-3-(4-((Z)-1-(1H-Indazol-5-yl)-2-phenylbut-1-en-1-yl)-3-methylphenyl)acrylic acid], for which the Emax at ER-α is ≥ 40%. In the test with MCF-7 cells, the “MCF7 Viability Assay Max Response” value is reported as “++ (++ = a single % value ≧ 40%)” and the pIC50 was ≥ 7.00.
With `CC/C(=C(/c1ccc(/C=C/C(=O)O)cc1)c1ccc2[nH]ncc2c1)c1cccc(S(C)(=O)=O)c1` [Compound 133, (E)-3-(4-((E)-1-(1H-Indazol-5-yl)-2-(3-(methylsulfonyl)phenyl)but-1-en-1-yl)phenyl)acrylic acid], on ER-α, the Emax is ≥ 40% and the DC50 is > 100 nM. For the same compound, in the test on MCF-7 cells, the “MCF7 Viability Assay Max Response” value is given as “+ (+ = a single % value < 40%)” and the pIC50 is < 7.00.
On the same counts, the results for `CC/C(=C(/c1ccc(/C=C/C(=O)O)cc1)c1cc2cn[nH]c2cc1C)c1ccccc1` [Compound 38, (E)-3-(4-((E)-1-(6-Methyl-1H-indazol-5-yl)-2-phenylbut-1-en-1-yl)phenyl)acrylic acid] are ≥ 40%, > 100 nM, “++ (++ = a single % value ≧ 40%)” and < 7.00.

(Values after US8455534B2, “Estrogen receptor modulators and uses thereof” (Aragon Pharmaceuticals, Inc., priority 2010, dated 2013).)
